What all share (type): functional
Experiment [1] concerns Cavia porcellus. The experiment can be described thus: Antioxidant activity against gamma irradiation-induced ROS production in Cavia porcellus (guinea pig) liver assessed as superoxide dismutase level per mg protein at 50 U/Kg, ip administered 2 days prior to irradiation-challenge measured after 30 min by spectroscopic analysis (reference value: 8.72 +/- 1.94 U per mg protein).

Experiment [2] has as its system Cavia porcellus. The experiment can be described thus: Antioxidant activity against gamma irradiation-induced ROS production in Cavia porcellus (guinea pig) liver assessed as nitric oxide level at 50 U/Kg, ip administered 2 days prior to irradiation-challenge measured after 30 min by ESR spectroscopic analysis (reference value: 0.3 +/- 0.08 a.u).
In experiment [3] the test system is Cavia porcellus. The experiment can be described thus: Antioxidant activity against gamma irradiation-induced ROS production in Cavia porcellus (guinea pig) liver assessed as thiobarbituric acid reactive substance level per g tissue at 50 U/Kg, ip administered 2 days prior to irradiation-challenge measured after 30 min by spectroscopic analysis (reference value: 168.75 +/- 12.54 nmol per g tissue).

Experiment [4] relates to Cavia porcellus. The experiment can be described thus: Antioxidant activity against gamma irradiation-induced ROS production in Cavia porcellus (guinea pig) liver assessed as glutathione peroxidase level per mg protein at 50 U/Kg, ip administered 2 days prior to irradiation-challenge measured after 30 min by spectroscopic analysis (reference value: 0.76 +/- 0.06 U per mg protein).

In the case of `CC1=C(/C=C/C(C)=C/C=C/C(C)=C/CO)C(C)(C)CCC1` [RETINOL], the Activity in the experiment with Cavia porcellus [1] worked out at 6.66 U/mg; with Cavia porcellus [2] it was 1.04 a.u; with Cavia porcellus [3], 197 nmol/g; in the experiment with Cavia porcellus [4], 0.39 U/mg.

These data come from ChEMBL document CHEMBL3045926, “Exacerbative role of vitamn A on radiation damage in vivo” (2008).
